Key:
[1] = test system: hot plate withdrawal latency; assay: Hot-plate test; assay type: in vivo, ICR mice; settings: mouse, oral
Protocol: To examine the pain relief effect of the sulfamate derivative compounds, a hot-plate test was conducted referring to Current Protocols in Neuroscience; Behavioral Neuroscience Unit 8.9.
ICR mice (male, 30-35 g; Orient Bio, Korea) were habituated before the test in the test room for 1 hour. Animals were fasted 2 hr before administration of the compounds. […] All compounds were dissolved in a vehicle of 30% (v/v) PEG 400 or 20% (v/v) Tween 80. The control group was treated with vehicle without treatment compounds.
0.5 hr after the administration of compounds, the mice were put on a hot plate pre-heated to 55±1° C. (Hu, X. et al, 2008), and then, the withdrawal latency was measured (cut-off time: 30 sec) until the point when each mouse was taking a paw off from the plate, shaking, licking a paw or hind leg, or jumping from the plate.

[2] = test system: Vincristine-induced pain model; assay: Antiallodynic activity in the vincristine-induced pain model (von Frey); assay type: in vivo, Sprague-Dawley rats; settings: rat, intraperitoneal, 0.5 h; for ED50: ip
Protocol: Male, Sprague-Dawley rats (300-320 g, Nara Bio, Korea) were habituated for 1 week before surgery and allowed free access to food and water throughout the experimentation. Room temperature and humidity were maintained at 24±2° C. and 50±10%, respectively.
The vincristine-induced pain model was established by the procedure of Natsuko et al. (2001) with minor modifications. Vincristine was intravenously infused continuously for 14 days using a mini-osmotic pump as follows: Vincristine sulfate solution (Hospira, Australia) was diluted with 0.9% saline to a final dose of 30 ug/kg. The pumps (Alzet Model 2002, USA) were filled with the vincristine solution and primed by incubation at 37° C. for 4 h before the infusion. Briefly, animals were put under gaseous anesthesia with isoflurane and NO with a 4:4 flow ratio. A catheter made from PE-60 tubing was inserted into an external jugular vein in the rat. Sham controls were prepared in the same manner, with the external jugular vein exposed, but not cut down. Preparation of the vehicle controls were identical to the group treated with compound, except for administration of vehicles without compound in the vehicle control group.
Tactile sensitivity (mechanical allodynia) was evaluated using von Frey monofilaments before and after treatment, and the animals were included in the study only if the withdrawal threshold value was less than 4 g. One week after surgery, vincristine-infused animals (n=6), sham-operated animals (n=12) and vehicle-operated (n=18) animals were tested for tactile sensitivity with von Frey monofilaments with 3 trials in each animal. All animals were placed in a stainless steel mesh chamber and habituated for 30 min in the test cage. The tactile sensitivity for the ipsilateral hind paw was measured using the up-and-down method (Dixon, 1980) with seven von Frey monofilaments (0.4, 1, 2, 4, 6, 8, and 15 g) in 3 trials. The tactile sensitivity test was followed by Dixon's method. The 50% paw withdrawal threshold for each paw was calculated using the following formula: [Xth] log=[vFr] log+ky where [vFr] is the force of the last von Frey used, k=0.2249 which is the average interval (in log units) between the von Frey monofilaments, and y is a value that depends upon the pattern of withdrawal responses (Dixon, 1980).
[…] The test was performed at the peak time of efficacy (0.5 hr) after compound administration.
The relative values compared to the sham (% control) were calculated and are shown in Table 11, which show an antiallodynic effect of the compound of examples in the vincristine-induced pain model in rats.

SMILES: CC1(C)Oc2ccccc2[C@@H](COS(N)(=O)=O)O1 [Example 2, ((S)-2,2-dimethyl-4H-benzo[d][1,3]dioxin-4-yl)methyl sulfamate]
- ED50 ([1]; 0.5 h): 170 mg/kg

SMILES: CC1(C)Oc2ccccc2[C@H](COS([NH-])(=O)=O)O1.[Na+] [Example 58, Sodium (R)-(((2,2-dimethyl-4H-benzo[d][1,3]dioxin-4-yl)methoxy)sulfonyl)amide Trihydrate]
- ED50 [2]: 6.2 mg/kg

SMILES: CC1(C)Oc2ccccc2C(COS([NH-])(=O)=O)O1.[Na+] (stereo not shown) [Example 60, Sodium (((2,2-dimethyl-4H-benzo[d][1,3]dioxin-4-yl)methoxy)sulfonyl)amide Trihydrate]
- Hot plate test: effect (%) compared to control ([1]; 170 mg/kg administered, time not given): (196.2%)
- ED50 [2]: 2.4 mg/kg

SMILES: [NH-]S(=O)(=O)OC[C@H]1OC2(CCCC2)Oc2ccccc21.[Na+] [Example 65, Sodium (S)-(((4H-spiro[benzo[d][1,3]dioxine-2,1′-cyclopentan]-4-yl)methoxy)sulfonyl)amide]
- ED50 [2]: 8.2 mg/kg
- melting point: 121.2 to 131.9 °C

SMILES: CC1(C)Oc2ccccc2[C@H](COS([NH-])(=O)=O)O1.[K+] [Example 70, Potassium (R)-(((2,2-dimethyl-4H-benzo[d][1,3]dioxin-4-yl)methoxy)sulfonyl)amide]
- Vincristine model: effect (%) compared to control ([2]; 2.4 mg/kg administered): (36.2%, 0.5 h)

Source: patent US10081615B2, “Sulfamate derivative compounds for use in treating or alleviating pain” (Bio-Pharm Solutions Co., Ltd., priority 2013, dated 2018)
